We go through 1 compound from ChEMBL document CHEMBL4804281, “STK4 inhibitors for treatment of hematologic malignancies” (2020).

Active and inactive are the calls of the source. No cut-off for these calls is given here.

A word on the Kd: it is the concentration at which binding is half-saturated. For orientation: IC50 means the point on the concentration scale where inhibition reaches its midpoint.

The target in experiment [1] is Casein kinase I isoform gamma-3 (Homo sapiens) (UniProt Q9Y6M4). In words: Inhibition of wild-type human full length CSNK1G3 (M1 to K447 residues) expressed in bacterial expression system by Kinomescan method.
Experiment [2] concerns the target Casein kinase I isoform epsilon (Homo sapiens) (UniProt P49674). The experiment is described as follows: Inhibition of wild-type human full length CSNK1E (M1 to K416 residues) expressed in bacterial expression system by Kinomescan method.
Experiment [3] addresses Interleukin-1 receptor-associated kinase 1 (Homo sapiens) (UniProt P51617). The experiment is described as follows: Inhibition of wild-type human partial length IRAK1 (R194 to S712 residues) expressed in mammalian expression system by Kinomescan method.
Experiment [4] has as its target Serine/threonine-protein kinase 26 (Homo sapiens) (UniProt Q9P289). In words: Inhibition of MST4 (unknown origin) using fluorescein-labelled Ser/Thr-07 peptide as substrate incubated for 1 hr in presence of ATP at Km concentration by Z-LYTE assay.
Experiment [5] deals with T1, Serine/threonine-protein kinase 3 (Homo sapiens) (UniProt Q13188).
T1 sequence (whole entry): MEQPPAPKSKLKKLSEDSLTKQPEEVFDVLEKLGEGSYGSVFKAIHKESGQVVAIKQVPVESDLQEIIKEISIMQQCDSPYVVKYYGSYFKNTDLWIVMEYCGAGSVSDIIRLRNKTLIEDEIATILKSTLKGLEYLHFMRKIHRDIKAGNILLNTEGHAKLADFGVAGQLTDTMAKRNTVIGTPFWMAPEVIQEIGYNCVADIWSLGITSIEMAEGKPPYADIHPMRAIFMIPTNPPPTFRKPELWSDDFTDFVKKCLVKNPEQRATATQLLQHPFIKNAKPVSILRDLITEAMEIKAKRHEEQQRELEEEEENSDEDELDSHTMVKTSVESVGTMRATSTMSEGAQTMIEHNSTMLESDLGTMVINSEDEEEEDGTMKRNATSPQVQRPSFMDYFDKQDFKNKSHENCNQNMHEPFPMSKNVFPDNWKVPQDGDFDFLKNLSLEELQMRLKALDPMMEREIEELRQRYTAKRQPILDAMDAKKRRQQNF
The experiment is described as follows: Inhibition of STK3 (unknown origin) using fluorescein-labelled Ser/Thr-07 peptide as substrate incubated for 1 hr in presence of ATP at Km concentration by Z-LYTE assay.

Experiment [6] has as its system MM1.S. The experiment is described as follows: Downregulation of phosphorylated-MOB1 protein level in human MM1.S cells at 1 to 10 uM measured after 6 hrs by Western blot analysis. The experiment is classed as functional, cell-based. Particulars: dose 1-10 µM.
The next experiment deals with NCI-H929. In words: Upregulation of YAP1 protein level in human NCI-H929 cells at 1 to 10 uM measured after 16 hrs by Western blot analysis. Particulars: dose 1-10 µM. The experiment is classed as functional, cell-based. A general note: A western blot detects proteins with antibodies after separation by electrophoresis.
The target in experiment [7] is Serine/threonine-protein kinase 24 (Homo sapiens) (UniProt Q9Y6E0). In words: Inhibition of STK24 (unknown origin) using fluorescein-labelled Ser/Thr-07 peptide as substrate incubated for 1 hr in presence of ATP at Km concentration by Z-LYTE assay.
Experiment [8] concerns the target T2, Serine/threonine-protein kinase 4 (Homo sapiens) (UniProt Q13043).
T2 sequence (whole entry): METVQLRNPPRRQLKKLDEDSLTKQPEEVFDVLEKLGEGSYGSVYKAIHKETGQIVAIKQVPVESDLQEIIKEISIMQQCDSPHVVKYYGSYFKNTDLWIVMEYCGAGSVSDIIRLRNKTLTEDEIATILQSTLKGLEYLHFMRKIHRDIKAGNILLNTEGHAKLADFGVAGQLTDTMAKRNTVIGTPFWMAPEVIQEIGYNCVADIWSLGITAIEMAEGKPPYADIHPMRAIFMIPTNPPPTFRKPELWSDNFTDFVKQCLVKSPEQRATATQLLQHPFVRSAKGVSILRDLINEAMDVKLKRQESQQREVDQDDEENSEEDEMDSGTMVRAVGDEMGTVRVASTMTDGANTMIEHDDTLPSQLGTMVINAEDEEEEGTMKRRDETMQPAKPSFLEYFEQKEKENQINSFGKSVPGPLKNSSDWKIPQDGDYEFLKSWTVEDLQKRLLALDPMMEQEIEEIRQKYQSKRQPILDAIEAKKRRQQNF
In words: Inhibition of STK4 (unknown origin) using fluorescein-labelled Ser/Thr-07 peptide as substrate incubated for 1 hr in presence of ATP at Km concentration by Z-LYTE assay.

The target of experiment [9] is T1, Serine/threonine-protein kinase 3 (Homo sapiens). In words: Inhibition of wild-type human partial length MST2 (D17 to E318 residues) expressed in bacterial expression system by Kinomescan method.
The subject of experiment [10] is MM1.S. In words: Upregulation of YAP1 protein level in human MM1.S cells at 1 to 10 uM measured after 16 hrs by Western blot analysis. The experiment is classed as functional, cell-based. Particulars: dose 1-10 µM.

Sequence of Serine/threonine-protein kinase 26 (Homo sapiens) (Q9P289 2-416 limits assumed): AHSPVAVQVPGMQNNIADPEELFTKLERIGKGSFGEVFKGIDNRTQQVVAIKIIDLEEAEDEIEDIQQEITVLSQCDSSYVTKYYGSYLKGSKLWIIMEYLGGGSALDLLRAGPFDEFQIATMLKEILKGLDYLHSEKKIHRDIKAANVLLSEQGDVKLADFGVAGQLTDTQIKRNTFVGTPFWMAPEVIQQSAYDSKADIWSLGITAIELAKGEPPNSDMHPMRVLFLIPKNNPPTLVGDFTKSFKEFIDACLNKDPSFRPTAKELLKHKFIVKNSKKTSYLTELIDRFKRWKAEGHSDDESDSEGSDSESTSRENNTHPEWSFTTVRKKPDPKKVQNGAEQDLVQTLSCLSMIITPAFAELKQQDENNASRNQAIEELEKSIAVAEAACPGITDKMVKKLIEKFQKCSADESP
Sequence of Casein kinase I isoform epsilon (Homo sapiens) (P49674 whole entry, looked up, the tested form may be a part, canonical isoform): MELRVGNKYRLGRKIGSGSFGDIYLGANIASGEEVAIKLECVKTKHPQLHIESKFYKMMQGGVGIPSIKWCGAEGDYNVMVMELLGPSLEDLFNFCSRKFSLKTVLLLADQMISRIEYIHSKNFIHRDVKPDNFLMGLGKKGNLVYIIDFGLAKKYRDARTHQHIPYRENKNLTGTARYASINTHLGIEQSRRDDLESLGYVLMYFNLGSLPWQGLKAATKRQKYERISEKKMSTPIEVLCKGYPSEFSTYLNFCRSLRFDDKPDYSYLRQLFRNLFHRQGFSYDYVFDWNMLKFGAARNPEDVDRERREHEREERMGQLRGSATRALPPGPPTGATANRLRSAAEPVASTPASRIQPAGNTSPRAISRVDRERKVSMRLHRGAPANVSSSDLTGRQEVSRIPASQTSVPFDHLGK
Sequence of Interleukin-1 receptor-associated kinase 1 (Homo sapiens) (P51617 whole entry, looked up, the tested form may be a part): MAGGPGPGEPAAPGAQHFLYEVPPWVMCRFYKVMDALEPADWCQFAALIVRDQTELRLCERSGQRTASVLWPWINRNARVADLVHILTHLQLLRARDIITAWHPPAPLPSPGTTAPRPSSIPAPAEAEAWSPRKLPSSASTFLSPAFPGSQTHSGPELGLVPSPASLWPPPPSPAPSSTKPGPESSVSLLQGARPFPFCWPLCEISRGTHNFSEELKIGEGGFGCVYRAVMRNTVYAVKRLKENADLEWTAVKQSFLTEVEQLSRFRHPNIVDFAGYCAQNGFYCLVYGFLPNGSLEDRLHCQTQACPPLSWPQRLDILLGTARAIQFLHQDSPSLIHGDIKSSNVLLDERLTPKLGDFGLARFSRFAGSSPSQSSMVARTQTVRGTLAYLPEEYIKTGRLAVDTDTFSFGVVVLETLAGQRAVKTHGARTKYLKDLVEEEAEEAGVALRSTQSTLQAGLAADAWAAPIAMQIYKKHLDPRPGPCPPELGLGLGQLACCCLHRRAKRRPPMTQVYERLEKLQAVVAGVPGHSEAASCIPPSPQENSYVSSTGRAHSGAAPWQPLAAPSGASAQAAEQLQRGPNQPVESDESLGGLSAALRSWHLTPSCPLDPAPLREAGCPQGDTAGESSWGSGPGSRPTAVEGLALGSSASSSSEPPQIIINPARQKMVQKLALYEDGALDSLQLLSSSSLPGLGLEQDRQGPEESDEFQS
Sequence of Serine/threonine-protein kinase 24 (Homo sapiens) (Q9Y6E0 whole entry, looked up): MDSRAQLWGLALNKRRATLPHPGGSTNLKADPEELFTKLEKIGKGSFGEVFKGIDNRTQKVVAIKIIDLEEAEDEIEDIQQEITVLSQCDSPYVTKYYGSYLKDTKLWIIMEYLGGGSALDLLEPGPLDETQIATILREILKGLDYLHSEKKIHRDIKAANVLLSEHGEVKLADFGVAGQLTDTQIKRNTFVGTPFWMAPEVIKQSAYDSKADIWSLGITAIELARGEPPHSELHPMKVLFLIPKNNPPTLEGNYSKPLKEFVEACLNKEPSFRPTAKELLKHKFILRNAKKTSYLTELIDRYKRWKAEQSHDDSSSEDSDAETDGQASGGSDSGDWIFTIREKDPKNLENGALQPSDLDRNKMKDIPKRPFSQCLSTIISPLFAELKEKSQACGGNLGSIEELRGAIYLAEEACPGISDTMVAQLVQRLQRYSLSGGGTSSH
Sequence of Casein kinase I isoform gamma-3 (Homo sapiens) (Q9Y6M4 whole entry, looked up, the tested form may be a part, canonical isoform): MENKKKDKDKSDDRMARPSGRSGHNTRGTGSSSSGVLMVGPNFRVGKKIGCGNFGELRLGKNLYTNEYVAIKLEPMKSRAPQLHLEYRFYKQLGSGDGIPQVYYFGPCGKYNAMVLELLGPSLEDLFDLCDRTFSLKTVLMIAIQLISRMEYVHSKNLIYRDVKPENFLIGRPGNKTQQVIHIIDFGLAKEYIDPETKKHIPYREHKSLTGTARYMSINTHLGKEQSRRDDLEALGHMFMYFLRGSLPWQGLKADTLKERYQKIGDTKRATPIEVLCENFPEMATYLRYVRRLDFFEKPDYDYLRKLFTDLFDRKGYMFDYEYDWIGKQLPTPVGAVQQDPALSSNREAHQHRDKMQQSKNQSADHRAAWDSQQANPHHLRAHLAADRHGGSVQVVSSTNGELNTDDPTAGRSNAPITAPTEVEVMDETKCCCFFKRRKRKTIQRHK

Regarding `Nc1ncc(-c2cc([N+](=O)[O-])ccc2F)cc1-c1ccc2c(c1)CCNC2=O`, the Kd in [1] stood at 4.68 nM; in experiment [2], 201 nM; in experiment [3], 110 nM; in [9], 42.6 nM. Further, the IC50 in experiment [4] was over 900 nM; in experiment [5] it was 40 nM; in experiment [7], over 900 nM; in [8], under 40 nM. For the same compound, the result in the experiment on MM1.S [6], with NCI-H929 and in the experiment with MM1.S [10] was Active.
